Assay results reported in publication PMC6522912, “Evaluation of the published kinase inhibitor set to identify multiple inhibitors of bacterial ATP-dependent mur ligases” (Journal of Enzyme Inhibition and Medicinal Chemistry, 2019).
Where two headings read alike, the source gives them in different places.

Tests used:
E. coli MurC = E. coli MurC (Escherichia coli, UniProt P17952); assay: Malachite green inhibition assay, MurC; format: biochemical; details: for remaining activity at 100 µM: 0.25 h
Chain of E. coli MurC (P17952 whole entry): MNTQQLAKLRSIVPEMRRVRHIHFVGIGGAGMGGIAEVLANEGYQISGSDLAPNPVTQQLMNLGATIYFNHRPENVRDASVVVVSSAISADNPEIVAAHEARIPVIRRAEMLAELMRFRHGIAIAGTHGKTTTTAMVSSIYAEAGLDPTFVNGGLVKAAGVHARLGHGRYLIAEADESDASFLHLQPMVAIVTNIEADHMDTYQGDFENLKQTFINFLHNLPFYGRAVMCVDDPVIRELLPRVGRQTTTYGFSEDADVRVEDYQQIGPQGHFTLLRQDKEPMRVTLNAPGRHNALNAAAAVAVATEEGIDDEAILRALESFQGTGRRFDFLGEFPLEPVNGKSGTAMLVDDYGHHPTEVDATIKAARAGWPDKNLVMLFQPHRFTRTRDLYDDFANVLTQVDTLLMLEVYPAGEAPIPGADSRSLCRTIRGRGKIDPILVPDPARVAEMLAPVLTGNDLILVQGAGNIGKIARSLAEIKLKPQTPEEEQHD

E. coli MurF = E. coli MurF (Escherichia coli, UniProt P11880); assay: biochemical; details: Table S1, PKIS screening; for remaining activity at 100 µM: 0.25 h, read-out: RA [%] at 100 µM MurF
Chain of E. coli MurF (P11880 whole entry): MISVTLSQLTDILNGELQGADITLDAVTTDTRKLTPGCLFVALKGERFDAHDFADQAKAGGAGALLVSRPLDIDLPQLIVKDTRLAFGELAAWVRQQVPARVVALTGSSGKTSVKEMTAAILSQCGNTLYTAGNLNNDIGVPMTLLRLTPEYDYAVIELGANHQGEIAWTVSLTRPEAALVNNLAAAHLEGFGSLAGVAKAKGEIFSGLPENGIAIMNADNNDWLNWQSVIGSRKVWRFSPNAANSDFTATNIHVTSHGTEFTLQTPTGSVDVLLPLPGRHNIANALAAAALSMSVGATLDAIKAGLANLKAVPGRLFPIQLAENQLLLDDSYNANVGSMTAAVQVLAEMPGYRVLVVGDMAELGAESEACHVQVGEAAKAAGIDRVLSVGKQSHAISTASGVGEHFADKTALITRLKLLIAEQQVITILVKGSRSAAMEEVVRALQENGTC

E. coli MurD = E. coli MurD (Escherichia coli, UniProt P14900); assay: biochemical; details: for remaining activity at 100 µM: 0.25 h, Table S1, PKIS screening, read-out: RA [%] at 100 µM MurD
Chain of E. coli MurD (P14900 whole entry): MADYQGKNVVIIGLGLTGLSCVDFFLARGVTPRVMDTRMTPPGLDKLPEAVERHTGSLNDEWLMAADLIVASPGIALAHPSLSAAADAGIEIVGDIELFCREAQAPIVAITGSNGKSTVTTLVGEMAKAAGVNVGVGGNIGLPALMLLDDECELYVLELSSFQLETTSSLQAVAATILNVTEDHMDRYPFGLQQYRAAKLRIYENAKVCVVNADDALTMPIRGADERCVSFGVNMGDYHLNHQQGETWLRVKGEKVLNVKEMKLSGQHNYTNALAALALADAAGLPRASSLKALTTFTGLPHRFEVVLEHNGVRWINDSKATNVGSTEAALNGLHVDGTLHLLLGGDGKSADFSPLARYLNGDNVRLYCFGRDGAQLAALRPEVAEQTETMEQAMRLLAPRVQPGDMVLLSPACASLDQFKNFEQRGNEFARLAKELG
Summary of the method: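 Orthophosphate released by E. coli MurD quantified by malachite green (Biomol green) absorbance at 650 nm after 15 min at 37 °C. Residual activity relative to DMSO-only controls.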

[1] = Table S1, PKIS screening, read-out: RA [%] at 100 µM MurC
[2] = read-out: RA [%] at 100 µM MurC, Table S1, PKIS screening

SMILES	remaining activity at 100 µM (E. coli MurC; [1]) [%]	remaining activity at 100 µM (E. coli MurF) [%]	remaining activity at 100 µM (E. coli MurD) [%]	remaining activity at 100 µM (E. coli MurC; [2]) [%]	RA [%] at 100 µM MurC (E. coli MurC; Table S1, PKIS screening) [%]	RA [%] at 100 µM MurF (E. coli MurF) [%]	RA [%] at 100 µM MurD (E. coli MurD)
CN(c1ccc(NC(=O)Nc2c(Cl)cccc2Cl)cc1)c1ccnc(Nc2cccc(CS(C)(=O)=O)c2)n1 [GW809897X]	26	51	55	–	–	–	–
COc1ccc2c(-c3ccnc(Nc4cccc(OC(F)(F)F)c4)n3)cnn2n1 [GW810372X]	46	73	70	–	–	–	–
COc1cccc(-n2ncc3c(N/N=C/c4ccc(S(C)(=O)=O)cc4)ncnc32)c1 [GW811168X]	57	35	87	–	–	–	–
CCOc1ccc2c(-c3ccnc(Nc4cccc(C(F)(F)F)c4)n3)cnn2n1 [GW811761X]	64	74	93	–	–	–	–
COc1cccc(-n2cnc3c(N/N=C/c4ccncc4)ncnc32)c1 [GW813360X]	65	81	84	–	–	–	–
COc1cccc(-n2ncc3c(N/N=C/c4cccc(F)c4)ncnc32)c1 [GW817394X]	64	46	81	–	–	–	–
COc1cccc(-n2ncc3c(N/N=C/c4ccc(F)cc4)ncnc32)c1 [GW817396X]	69	41	95	–	–	–	–
FC(F)(F)c1cccc(Nc2nccc(-c3cnn4nc(-c5ccccc5)ccc34)n2)c1 [GW819077X]	50	58	63	–	–	–	–
Cc1ccc(C(=O)NC2CC2)cc1-c1ccc2[nH]ncc2c1 [GW820759X]	63	86	100	–	–	–	–
COc1ccc(-c2nn3ncccc3c2-c2ccnc(Nc3ccc4c(c3)OCCO4)n2)cc1 [GW827106X]	–	49	32	13	–	–	–
COc1ccc(-c2nn3ncccc3c2-c2ccnc(Nc3ccc(F)c(F)c3)n2)cc1 [GW827396X]	79	61	61	–	–	–	–
FC(F)(F)c1ccc(-c2nn3ncccc3c2-c2ccnc(Nc3ccc4c(c3)OCCO4)n2)cc1 [GW828525X]	–	47	90	21	–	–	–
COc1cccc(/C=N/Nc2ncnc3c2cnn3-c2cccc(OC)c2)c1 [GW829874X]	69	85	78	–	–	–	–
COc1cccc(-n2ncc3c(N/N=C/c4ccc(C)cc4)ncnc32)c1 [GW829877X]	70	76	85	–	–	–	–
CN1CCN(C(=O)c2ccc(NC(=O)Nc3ccc(N(C)c4ccnc(Nc5ccc(CS(C)(=O)=O)cc5)n4)cc3)cc2)CC1 [GW830263A]	51	73	69	–	–	–	–
CN(C)CCNC(=O)Nc1ccc(N(C)c2ccnc(Nc3ccc(CS(C)(=O)=O)cc3)n2)cc1 [GW830900A]	74	75	91	–	–	–	–
Cc1ccc2c(-c3ccnc(Nc4ccc5c(c4)OCCO5)n3)c(-c3ccc(C(F)(F)F)cc3)nn2n1 [GW832467X]	–	73	62	22	–	–	–
COc1cc2ncn(-c3cc(OCc4ccccc4C(F)(F)F)c(C(N)=O)s3)c2cc1OC [GW843682X]	65	83	82	–	–	–	–
COc1cc2ncn(-c3cc(OCc4ccccc4Cl)c(C(N)=O)s3)c2cc1OC [GW852849X]	67	85	81	–	–	–	–

SMILES	remaining activity at 100 µM (E. coli MurC; [1]) [%]	remaining activity at 100 µM (E. coli MurF) [%]	remaining activity at 100 µM (E. coli MurD) [%]	remaining activity at 100 µM (E. coli MurC; [2]) [%]	RA [%] at 100 µM MurC (E. coli MurC; Table S1, PKIS screening) [%]	RA [%] at 100 µM MurF (E. coli MurF) [%]	RA [%] at 100 µM MurD (E. coli MurD)
NC(=O)c1sc(-n2cnc3ccc(C(F)(F)F)cc32)cc1OCc1ccccc1Br [GW853606X]	64	75	86	–	–	–	–
Nc1ncc(-c2cccc(S(N)(=O)=O)c2)c2scc(-c3ccc(F)c(Cl)c3)c12 [GW856804X]	64	71	75	–	–	–	–
O=C(O[C@H]1CN[C@H](C#Cc2cc3ncnc(Nc4ccc(OCc5cccc(F)c5)c(Cl)c4)c3s2)C1)N1CCOCC1 [GW869810X]	65	77	55	–	–	–	–
Fc1ccc(-c2ncn(CCCN3CCOCC3)c2-c2ccncc2)cc1 [SB-210313]	100	100	91	–	–	–	–
Nc1nccc(-c2c(-c3ccc(F)cc3)ncn2CCCN2CCOCC2)n1 [SB-216385]	77	98	96	–	–	–	–
Nc1nccc(-c2c(-c3ccc(F)cc3)ncn2C2CCNCC2)n1 [SB-220025-A]	–	–	–	–	98	96	99
Nc1nccc(-c2c(-c3ccc(F)cc3)ncn2C2CCNCC2)n1 [SB-220025-R#3]	–	–	–	–	81	100	87
CN1CCC(n2cnc(-c3ccc(F)cc3)c2-c2ccnc(N)n2)CC1 [SB-220455]	–	100	81	76	–	–	–
CC1(C)CC(n2cnc(-c3ccc(F)cc3)c2-c2ccnc(N)n2)CC(C)(C)N1 [SB-221466]	91	100	93	–	–	–	–
Nc1nccc(-c2c(-c3ccc(F)cc3)ncn2C2CCC(O)CC2)n1 (stereo not drawn) [SB-223133]	64	88	87	–	–	–	–
CN1CCC(n2cnc(-c3ccc(F)cc3)c2-c2ccnc(NCCO)n2)CC1 [SB-226879]	–	68	98	65	–	–	–
CN1CCC(n2cnc(-c3ccc(F)cc3)c2-c2ccnc(Nc3ccccc3)n2)CC1 [SB-236687]	79	67	90	–	–	–	–
Fc1ccc(-c2ncn(C3CCNCC3)c2-c2ccnc(Oc3ccccc3)n2)cc1 [SB-239272]	100	75	67	–	–	–	–
NC(=O)c1ccc(Oc2nccc(-c3c(-c4ccc(F)cc4)ncn3C3CCNCC3)n2)cc1 [SB-242718]	39	69	65	–	–	–	–
CCc1ccc(Oc2nccc(-c3c(-c4ccc(F)cc4)ncn3C3CCNCC3)n2)cc1 [SB-242719]	–	80	87	51	–	–	–
Fc1ccc(-c2ncn(C3CCNCC3)c2-c2ccnc(Oc3ccc(Oc4ccccc4)cc3)n2)cc1 [SB-245392]	27	41	41	–	–	–	–
Fc1ccc(-c2ncn(C3CCNCC3)c2-c2ccnc(Oc3ccc4c(c3)OCO4)n2)cc1 [SB-250715]	–	85	65	51	–	–	–
Fc1ccc(-c2ncn(C3CCNCC3)c2-c2ccnc(Oc3ccc(F)c(F)c3)n2)cc1 [SB-253228]	32	70	40	–	–	–	–
